Results: the NIST ThermoML archive (doi:10.1021/je060271a)

Conditions: 283.16 K, Liquid, Vibrating tube method

CCCC(=O)OCC(COC(=O)CCC)(COC(=O)CCC)COC(=O)CCC [pentaerythritol tetrabutyrate]
Conditions | mass density [kg/m3]
13019 kPa | 1066.7
13044 kPa | 1066.7
13070 kPa | 1066.6
13101 kPa | 1066.6
13127 kPa | 1066.5
13208 kPa | 1066.8
13264 kPa | 1066.8
13291 kPa | 1066.8
13317 kPa | 1066.7
13343 kPa | 1066.8
13374 kPa | 1066.8
13401 kPa | 1066.8
13427 kPa | 1066.8
13460 kPa | 1066.8
13487 kPa | 1066.9
13514 kPa | 1066.9
13541 kPa | 1066.9
13574 kPa | 1066.9
13601 kPa | 1066.9
13628 kPa | 1066.9
13661 kPa | 1067
13689 kPa | 1066.9
13722 kPa | 1067.2
13750 kPa | 1067
13778 kPa | 1067
13807 kPa | 1067.1
13841 kPa | 1067
13870 kPa | 1067.1
13927 kPa | 1067.1
13962 kPa | 1067
13990 kPa | 1067.2
14025 kPa | 1067.1
14054 kPa | 1067.1
14084 kPa | 1067.2
14113 kPa | 1067.2
14149 kPa | 1067.3
14178 kPa | 1067.2
14208 kPa | 1067.2
14245 kPa | 1067.2
14275 kPa | 1067.3
14306 kPa | 1067.5
14343 kPa | 1067.3
14374 kPa | 1067.3
14405 kPa | 1067.4
14436 kPa | 1067.4
14474 kPa | 1067.4
14504 kPa | 1067.4
14536 kPa | 1067.5
14574 kPa | 1067.4
14605 kPa | 1067.5
14638 kPa | 1067.5
14677 kPa | 1067.4
14709 kPa | 1067.5
14741 kPa | 1067.6
14774 kPa | 1067.5
14814 kPa | 1067.7
14846 kPa | 1067.6
14886 kPa | 1067.6
14919 kPa | 1067.6
14952 kPa | 1067.7
14985 kPa | 1067.6
15026 kPa | 1067.6
15059 kPa | 1067.8
15094 kPa | 1067.7
15136 kPa | 1067.7
15170 kPa | 1067.7
15205 kPa | 1067.7
15246 kPa | 1067.9
15282 kPa | 1067.9
15317 kPa | 1067.9
15359 kPa | 1067.8
15394 kPa | 1067.9
15430 kPa | 1068
15473 kPa | 1067.9
15545 kPa | 1067.9
15944 kPa | 1068.3
15983 kPa | 1068.2
16022 kPa | 1068.3
16069 kPa | 1068.4
16110 kPa | 1068.4
16153 kPa | 1068.4
16192 kPa | 1068.3
16240 kPa | 1068.4
16281 kPa | 1068.3
16322 kPa | 1068.3
16363 kPa | 1068.4
16414 kPa | 1068.4
16456 kPa | 1068.5
16498 kPa | 1068.5
16547 kPa | 1068.6
16580 kPa | 1068.5
16614 kPa | 1068.6
16656 kPa | 1068.6
16691 kPa | 1068.8
16726 kPa | 1068.6
16769 kPa | 1068.7
16805 kPa | 1068.8
16839 kPa | 1068.7
16871 kPa | 1068.8
16898 kPa | 1068.8
16924 kPa | 1068.6
16956 kPa | 1068.8
16983 kPa | 1068.7
17011 kPa | 1068.9
17044 kPa | 1068.9
17074 kPa | 1068.9
17104 kPa | 1068.8
17139 kPa | 1069
17162 kPa | 1068.9
17182 kPa | 1068.8
17202 kPa | 1069
17225 kPa | 1068.9
17237 kPa | 1069
17246 kPa | 1069
17257 kPa | 1069
17266 kPa | 1069
17275 kPa | 1068.9
17284 kPa | 1068.8
17295 kPa | 1069
17304 kPa | 1068.9
17313 kPa | 1069.1
17322 kPa | 1069.1
17333 kPa | 1069.1
17342 kPa | 1069
17352 kPa | 1069
17362 kPa | 1069.1
17371 kPa | 1069
17380 kPa | 1069.1
17391 kPa | 1069.1
17400 kPa | 1069
17411 kPa | 1069
17420 kPa | 1069
17429 kPa | 1069.2
17440 kPa | 1069.1
17449 kPa | 1069.1
17458 kPa | 1069
17469 kPa | 1069.1
17478 kPa | 1069.1
17487 kPa | 1069
17498 kPa | 1069.2
17508 kPa | 1069.1
17517 kPa | 1069.1
17528 kPa | 1069.1
17538 kPa | 1069.1
17547 kPa | 1069.1
17556 kPa | 1069.2
17568 kPa | 1069.2
17577 kPa | 1069.2
17586 kPa | 1069.2
17598 kPa | 1069.1
17607 kPa | 1069.2
17618 kPa | 1069.1
17628 kPa | 1069.2
17637 kPa | 1069.2
17646 kPa | 1069.1
17658 kPa | 1069.1
17668 kPa | 1069.2
17678 kPa | 1069.3
17687 kPa | 1069.2
17698 kPa | 1069.3
17708 kPa | 1069.2
17717 kPa | 1069.2
17790 kPa | 1069.3
17800 kPa | 1069.4
17810 kPa | 1069.3
17820 kPa | 1069.2
17831 kPa | 1069.3
17841 kPa | 1069.3
17850 kPa | 1069.3
17862 kPa | 1069.3
17872 kPa | 1069.3
17882 kPa | 1069.3
17892 kPa | 1069.3
17903 kPa | 1069.4
17913 kPa | 1069.3
17922 kPa | 1069.4
17935 kPa | 1069.4
17944 kPa | 1069.4
17954 kPa | 1069.3
17966 kPa | 1069.4
17976 kPa | 1069.5
17986 kPa | 1069.4
17997 kPa | 1069.4
18007 kPa | 1069.4
18017 kPa | 1069.5
18029 kPa | 1069.4
18039 kPa | 1069.5
18049 kPa | 1069.3
18061 kPa | 1069.4
18071 kPa | 1069.4
18081 kPa | 1069.5
18157 kPa | 1069.4
18188 kPa | 1069.4
18199 kPa | 1069.5
18209 kPa | 1069.5
18219 kPa | 1069.6
18231 kPa | 1069.6
18241 kPa | 1069.4
18254 kPa | 1069.5
18286 kPa | 1069.5
18361 kPa | 1069.6
18371 kPa | 1069.7
18381 kPa | 1069.5
18394 kPa | 1069.7
18404 kPa | 1069.6
18414 kPa | 1069.7
18426 kPa | 1069.5
18436 kPa | 1069.6
18449 kPa | 1069.6
18459 kPa | 1069.6
18469 kPa | 1069.7
18480 kPa | 1069.6
18492 kPa | 1069.7
18502 kPa | 1069.7
18513 kPa | 1069.7
18525 kPa | 1069.7
18536 kPa | 1069.7
18548 kPa | 1069.7
18559 kPa | 1069.6
18569 kPa | 1069.6
18579 kPa | 1069.8
18592 kPa | 1069.7
18603 kPa | 1069.8
18614 kPa | 1069.7
18627 kPa | 1069.6
18637 kPa | 1069.7
18648 kPa | 1069.8
18658 kPa | 1069.7
18669 kPa | 1069.7
18682 kPa | 1069.8
18692 kPa | 1069.7
18703 kPa | 1069.8
18716 kPa | 1069.7
18726 kPa | 1069.8
18737 kPa | 1069.8
18750 kPa | 1069.8
18761 kPa | 1069.7
18772 kPa | 1069.7
18783 kPa | 1069.8
18794 kPa | 1069.8
18806 kPa | 1069.8
18817 kPa | 1069.9
18830 kPa | 1069.9
18841 kPa | 1069.9
18851 kPa | 1069.8
18875 kPa | 1069.9
18886 kPa | 1069.9
18910 kPa | 1069.9
18921 kPa | 1069.9
18934 kPa | 1069.9
18945 kPa | 1069.9
19002 kPa | 1069.9
19015 kPa | 1069.9
19026 kPa | 1070
19039 kPa | 1070
19050 kPa | 1070
19062 kPa | 1070
19073 kPa | 1070
19084 kPa | 1069.9
19097 kPa | 1070
19108 kPa | 1070.1
19119 kPa | 1070.1
19132 kPa | 1070.1
19154 kPa | 1069.9
19168 kPa | 1070
19179 kPa | 1070.1
19190 kPa | 1070
19204 kPa | 1070
19215 kPa | 1070.1
19226 kPa | 1070.1
19240 kPa | 1070.1
19251 kPa | 1070.1
19262 kPa | 1070.1
19274 kPa | 1070.1
19287 kPa | 1070.1
19299 kPa | 1070
19310 kPa | 1070.2
19323 kPa | 1070.1
19335 kPa | 1070.2
19408 kPa | 1070.2
19444 kPa | 1070.2
19482 kPa | 1070.2
19493 kPa | 1070.2
19507 kPa | 1070.1
19518 kPa | 1070.1
19530 kPa | 1070.2
19544 kPa | 1070.2
19556 kPa | 1070.1
19568 kPa | 1070.3
19579 kPa | 1070.3
19593 kPa | 1070.2
19605 kPa | 1070.3
